Measured values from patent publication US6613304B2, “Radiometal complexes of 2-pyrrolylthiones and their use as radiopharmaceuticals for imaging and therapy” (University of British Columbia, priority 2000, dated 2003).
“Also recorded” adds a separate entry of the source.

Assays:
[1] = Stability towards oxidation; assay type: physicochemical; conditions: for stability towards oxidation: in solid state and in solution
[2] = Renal imaging: scintigraphic biodistribution of Tc-99m complexes in rats; assay type: in vivo, male Sprague and Dawley rats; conditions: for accumulation in the cortex: 1.5 min post injection, very fast linear accumulation; for scintigraphic image of the kidneys: one hour post injection, FIG. 5
Method: A group of 3 male Sprague and Dawley rats were anaesthetised by intra-muscluar administration of a mixture of Ketamine Xylazine (1 ml/Kg). A 26 guage Butterfly was introduced into the lateral tail vein and filled with heparinised physiological saline. The animals were injected with the indicated radiopharmaceutical, in the minutes following the beginning of the acquisition.
Dose activities were measured in an Accucal 2001 dose calibrator Nuclear Pharmacy Inc. (Albuquerque, N. Mex., U.S.A). Scvintigraphic mages were recorded with a Starcam 4000i XRT Gamma camera General Electric (Saint Albans, UK) equipped with a parallel, medium energy, high resolution collimator. Image analysis was performed on a Genie PNR model nuclear medicine dedicated computer General Electric (Saint Albans, UK).
The camera was set to record a series of 32 images at 1 min intervals each, the animals were injected successively starting from animal A after the camera was started. All injections were finished within the first one and a half minute. Following each injection the catheter was flushed with 0.5 ml of physiological saline. Following this first acquisition a second dynamic acquisition was recorded at a rate of one image every 10 minutes. The animals woke up 90 min after injection at which time the study was terminated.
For analysis, the areas of interest were traced around the organs of interest (right and left kidneys for the first dynamic study; and heart, left kidney and bladder at image 60 min. post-injection on the second study) and the whole body of the rats. The result were expressed as counts per seconds or as percent of the whole body activity at a given time, and are presented in FIGS. 5-9.

[3] = cited from earlier work; for clearance relative to OIH: % of that of OIH
[4] = cited from earlier work
[5] = healthy subjects; cited from earlier work

Bis(p-methoxyphenyl-2-pyrrolylthionato) [^99g Tc]oxotechnetium [compound 7]
stability towards oxidation [1]: stable towards oxidation

^99mTcO-disulfo-di-2-pyrrolylthionate [compound 9]
accumulation in the cortex [2]: 20%
excretion rate as evaluated by measuring the activity found in the bladder ([2]; 1 hour post-injection): best excretion rate
detected radioactivity in the kidneys reaching a plateau ([2]; as compared to DMSA, FIGS. 6-8): reach a plateau more rapidly
scintigraphic image of the kidneys ([2]; listed as TcSL-11): better resolved the kidneys; also recorded: kidneys are well visualised
accumulation in the cortex at plateau ([2]; plateau at about 35 min to 1 hour post injection): 22%

COc1ccc(C(=S)c2ccc[nH]2)cc1OC [3,4-dimethoxyphenyl-2-pyrrolylthione, 3,4-Dimethoxyphenyl-2-pyrrolylthione]
stability at room temperature ([1]; atmospheric oxygen): unstable at room temperature

O=C(O)CNC(=O)c1ccc(NC(=O)CN(CC(=O)O)CC(=O)O)cc1 [PAHIDA, p-[(biscarboxymethylaminomethyl)carbamino]hippuric acid]
clearance relative to OIH [3]: less than 50%

Tc-99m-dimercaptosuccinic acid [DMSA, reference compound]
activity in the calyx area ([2]; 1 hour post-injection): significant activity in the calyx area
blood clearance (heart area used as a measure of blood activity) ([2]; 1 hour post-injection): more rapidly cleared
overall kidney uptake ([2]; 1 hour post-injection, left kidney only): highest activity
scintigraphic image of the kidneys [2]: kidneys are well visualised
plasma protein binding [4]: almost completely bound to the proteins
steady level of renal uptake, of the activity administered [5]: ~30%
time after injection until which renal activity increases [5]: 6 to 8 h

Nc1ccc(C(=O)NCC(=O)O)cc1 [PAH, p-aminohippurate]
extracted from the renal arterial plasma in a single pass through the renal parenchyma ([3]; in vivo): ~90%

O=C([O-])CN=C([O-])CN=C([O-])CN=C([O-])C[S-].[O-2].[Tc+4] [Tc-99m-MAG3, ^99mTc-mercaptoacetyltriglycine]
plasma protein binding [4]: very high
clearance relative to OIH [3]: 50-60%
injected dose found in the kidneys ([3]; a few minutes post injection): 1-2%

Bis(2,2′-dipyrrolylthionato) ^99g Tc]oxotechnetium [compound 6]
stability towards oxidation [1]: stable towards oxidation

Bis(3,4-dimethoxyphenyl-2-pyrrolylthionato) [99g Tc]oxotechnetium [compound 8]
stability towards oxidation [1]: stable towards oxidation

^99mTcO-tetrasulfo-di-2-pyrrolylthionate [compound 10]
accumulation in the cortex [2]: 20%
excretion rate as evaluated by measuring the activity found in the bladder ([2]; 1 hour post-injection): best excretion rate
